Biological target: T1, APOL1 (Homo sapiens, UniProt O14791)
T1 sequence (O14791 1-398 S342G/I384M): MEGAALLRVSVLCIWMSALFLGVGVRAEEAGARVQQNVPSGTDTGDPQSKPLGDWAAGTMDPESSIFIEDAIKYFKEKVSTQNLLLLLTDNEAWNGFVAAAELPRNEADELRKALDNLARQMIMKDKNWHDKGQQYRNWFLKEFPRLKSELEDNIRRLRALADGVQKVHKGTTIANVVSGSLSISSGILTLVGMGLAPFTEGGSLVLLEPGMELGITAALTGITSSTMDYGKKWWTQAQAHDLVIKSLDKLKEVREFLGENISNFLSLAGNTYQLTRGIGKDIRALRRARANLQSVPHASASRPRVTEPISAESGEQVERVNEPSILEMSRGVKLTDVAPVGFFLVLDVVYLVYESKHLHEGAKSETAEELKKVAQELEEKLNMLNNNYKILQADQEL
Assay: MultiTox-Fluor Multiplex Cytotoxicity Assay in tet-inducible APOL1 T-REx-HEK293 cells (cell rescue, ratio of dead to live cells)
Type: cell-based
Conditions: tet-inducible transgenic APOL1 T-REx-HEK293 cell lines, 50 ng/mL tet, 24 hours; read-out: IP50 (i.e., IC50 for cell proliferation)
Summary of the method: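 T-REx-HEK293 cells with tet-inducible APOL1 were treated with compound (10 μM top, 10-point 3-fold dilution, duplicate) plus 50 ng/mL tetracycline for 24 h at 37° C, in DMEM with 2% tet-free FBS. MultiTox-Fluor protease signals gave a dead/live ratio, normalized to no tet (100% viability) and tet alone (0%).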

## CCc1cc2c(s1)CCO[C@@]21CCN(C[C@H]2C[C@@H](NC(=O)OC(C)(C)C)C2)[C@@H](C)C1 [Compound 1039]
  IC50: < 100 nM

## CS(=O)(=O)CCn1cc(CN2CCC3(CC2C2CC2)OCCc2cc(Cl)sc23)cn1 (stereo not drawn) [Compound 1040, 2-chloro-2′-cyclopropyl-1′-[[1-(2-methylsulfonylethyl)pyrazol-4-yl]methyl]spiro[4,5-dihydrothieno[2,3-c]pyran-7,4′-piperidine]]
  IC50: < 100 nM

## CCc1cc2c(s1)CCOC21CCN(Cc2cnn(C)c2)C(CC)C1 (stereo not drawn) [Compound 1041, 2,2′-diethyl-1-((1-methyl-1H-pyrazol-4-yl)methyl)-6′,7′-dihydrospiro[piperidine-4,4′-thieno [3,2-c]pyran]]
  IC50: < 100 nM

## CCc1cc2c(s1)CCOC21CCN(Cc2cnn(C)c2)C2(CCC2)C1 (stereo not drawn) [Compound 1042, 2″-ethyl-1′-((1-methyl-1H-pyrazol-4-yl)methyl)-6″,7″-dihydrodispiro[cyclobutane-1,2′-piperidine-4′,4″-thieno[3,2-c]pyran]]
  IC50: 100 to 500 nM

## CCc1cc2c(s1)CCOC21CCN(Cc2ccc(C(=O)N[C@H]3CC[C@H](O)CC3)nc2)CC1 [Compound 1043, 5-((2′-ethyl-6′,7′-dihydrospiro[piperidine-4,4′-thieno[3,2-c]pyran]-1-yl)methyl)-N-((1r,4r)-4-hydroxycyclohexyl)picolinamide]
  IC50: < 100 nM

## CCc1cc2c(s1)CCOC21CCN(Cc2ccc(C(=O)Nc3c[nH]c4ccccc34)nc2)CC1 [Compound 1044]
  IC50: < 100 nM

## CCc1cc2c(s1)CCOC21CCN(Cc2ccc(C(=O)NC(C)(CC)CO)nc2)CC1 (stereo not drawn) [Compound 1045]
  IC50: < 100 nM

## CCc1cc2c(s1)CCOC21CCN(Cc2ccc(C(=O)N[C@H](C)CO)nc2)CC1 [Compound 1046]
  IC50: < 100 nM

## CCc1cc2c(s1)CCOC21CCN(Cc2ccc(C(=O)NC(C)(C)CO)nc2)CC1 [Compound 1047]
  IC50: < 100 nM

## CCc1cc2c(s1)CCOC21CCN(Cc2ccc(C(=O)Nc3cccc4cc[nH]c34)nc2)CC1 [Compound 1048]
  IC50: < 100 nM

## CCc1cc2c(s1)CCOC21CCN(Cc2ccc(C(=O)NCCC(=O)N3CCCC3)nc2)CC1 [Compound 1049]
  IC50: < 100 nM

## CCc1cc2c(s1)CCOC21CCN(Cc2ccc(C(=O)N3CC(CO)C3)nc2)CC1 [Compound 1050]
  IC50: < 100 nM

## CCc1cc2c(s1)CCOC21CCN(Cc2ccc(C(=O)Nc3ccn(C)n3)nc2)CC1 [Compound 1051]
  IC50: < 100 nM

## CCc1cc2c(s1)CCOC21CCN(Cc2ccc(C(=O)Nc3ccnn3C)nc2)CC1 [Compound 1052]
  IC50: < 100 nM

## CCc1cc2c(s1)CCOC21CCN(Cc2ccc(C(=O)N[C@H](CC)CO)nc2)CC1 [Compound 1053]
  IC50: < 100 nM

## CCc1cc2c(s1)CCOC21CCN(Cc2ccc(C(=O)NC(C)CCO)nc2)CC1 (stereo not drawn) [Compound 1054]
  IC50: < 100 nM

## CCc1cc2c(s1)CCOC21CCN(Cc2ccc(C(=O)NC3CC(O)C3)nc2)CC1 (stereo not drawn) [Compound 1055]
  IC50: < 100 nM

## CCc1cc2c(s1)CCOC21CCN(Cc2ccc(C(=O)NCCO)nc2)CC1 [Compound 1056]
  IC50: 100 to 500 nM

## CCc1cc2c(s1)CCOC21CCN(Cc2ccc(C(=O)NC(CO)CO)nc2)CC1 [Compound 1057]
  IC50: 100 to 500 nM

## CCc1cc2c(s1)CCOC21CCN(Cc2ccc(C(=O)NC3CCCC3=O)nc2)CC1 (stereo not drawn) [Compound 1058]
  IC50: 100 to 500 nM

## CCc1cc2c(s1)CCOC21CCN(Cc2ccc(C(=O)NCc3ccn(C)n3)nc2)CC1 [Compound 1059]
  IC50: 100 to 500 nM

## CCc1cc2c(s1)CCOC21CCN(Cc2ccc(C(=O)NCC3CCC(O)C3)nc2)CC1 (stereo not drawn) [Compound 1060]
  IC50: 100 to 500 nM

## CCc1cc2c(s1)CCOC21CCN(Cc2ccc(C(=O)NCC(C)O)nc2)CC1 (stereo not drawn) [Compound 1061]
  IC50: 100 to 500 nM

## CCc1cc2c(s1)CCOC21CCN(Cc2ccc(C(=O)NCC3(C)CCOC3)nc2)CC1 (stereo not drawn) [Compound 1062]
  IC50: 100 to 500 nM

## CCc1cc2c(s1)CCOC21CCN(Cc2ccc(C(=O)NCCOCCO)nc2)CC1 [Compound 1063]
  IC50: 100 to 500 nM

## CCc1cc2c(s1)CCOC21CCN(Cc2ccc(C(=O)NC3CC(C)(O)C3)nc2)CC1 (stereo not drawn) [Compound 1064]
  IC50: 100 to 500 nM

## CCc1cc2c(s1)CCOC21CCN(Cc2ccc(C(=O)N(C)[C@H]3CC[C@H](O)CC3)nc2)CC1 [Compound 1065]
  IC50: 500 to 1000 nM

## CCc1cc2c(s1)CCOC21CCN(Cc2ccc(N3C[C@@H](O)[C@H](O)C3)nc2)CC1 [Compound 1066, (3R,4R)-1-(5-((2′-ethyl-6′,7′-dihydrospiro[piperidine-4,4′-thieno[3,2-c]pyran]-1-yl)methyl)pyridin-2-yl)pyrrolidine-3,4-diol]
  IC50: < 100 nM

## CCc1cc2c(s1)CCOC21CCN(Cc2ccc(N[C@H]3CC[C@H](O)CC3)nc2)CC1 [Compound 1067]
  IC50: < 100 nM

## CCc1cc2c(s1)CCOC21CCN(Cc2ccc(NCC3CCOCC3)nc2)CC1 [Compound 1068]
  IC50: < 100 nM

## CCc1cc2c(s1)CCOC21CCN(Cc2ccc(NS(=O)(=O)C3CC3)nc2)CC1 [Compound 1069]
  IC50: 100 to 500 nM

## CCc1cc2c(s1)CCOC21CCN(Cc2ccc(NC3(CO)CC3)nc2)CC1 [Compound 1070]
  IC50: 100 to 500 nM

## CCc1cc2c(s1)CCOC21CCN(Cc2ccc(N(C)S(C)(=O)=O)nc2)CC1 [Compound 1071]
  IC50: 100 to 500 nM

## CCc1cc2c(s1)CCOC21CCN(Cc2ccc(NC3(COC)CC3)nc2)CC1 [Compound 1072]
  IC50: 100 to 500 nM

## CCc1cc2c(s1)CCOC21CCN(Cc2cnc(N[C@H]3CC[C@H](O)CC3)nc2)CC1 [Compound 1073, (1r,4r)-4-((5-((2′-ethyl-6′,7′-dihydrospiro[piperidine-4,4′-thieno[3,2-c]pyran]-1-yl)methyl)pyrimidin-2-yl)amino)cyclohexan-1-ol]
  IC50: < 100 nM

## CCc1cc2c(s1)CCOC21CCN(Cc2cnc(Nc3cccnc3)nc2)CC1 [Compound 1074]
  IC50: < 100 nM

## CCc1cc2c(s1)CCOC21CCN(Cc2cnc(NCc3cc[nH]c(=O)c3)nc2)CC1 [Compound 1075]
  IC50: 100 to 500 nM

## CCc1cc2c(s1)CCOC21CCN(Cc2cnc(NC3CC3OC)nc2)CC1 (stereo not drawn) [Compound 1076]
  IC50: 100 to 500 nM

## CCc1cc2c(s1)CCOC21CCN(Cc2cnc(N[C@H](CC)CO)nc2)CC1 [Compound 1077]
  IC50: 100 to 500 nM

## CCc1cc2c(s1)CCOC21CCN(Cc2cnc(NCCn3cccn3)nc2)CC1 [Compound 1078]
  IC50: 100 to 500 nM

## CCc1cc2c(s1)CCOC21CCN(Cc2cn(CC(O)C(C)(C)O)nn2)CC1 (stereo not drawn) [Compound 1079, 1-(4-((2′-ethyl-6′,7′-dihydrospiro[piperidine-4,4′-thieno[3,2-c]pyran]-1-yl)methyl)-1H-1,2,3-triazol-1-yl)-3-methylbutane-2,3-diol]
  IC50: 100 to 500 nM

## CCc1cc2c(s1)CCOC21CCN(Cc2cn(CCS(N)(=O)=O)nn2)CC1 [Compound 1080]
  IC50: 100 to 500 nM

## CCc1cc2c(s1)CCOC21CCN(Cc2cn(CC(C)(C)S(C)(=O)=O)nn2)CC1 [Compound 1081]
  IC50: 100 to 500 nM

## CCc1cc2c(s1)CCOC21CCN(Cc2cn(CC3(O)CCCC3)nn2)CC1 [Compound 1082]
  IC50: 100 to 500 nM

## CCc1cc2c(s1)CCOC21CCN(Cc2cn(CCS(=O)(=O)NC)nn2)CC1 [Compound 1083]
  IC50: 500 to 1000 nM

## CCc1cc2c(s1)CCOC21CCN(Cc2cn(CC(O)CC)nn2)CC1 (stereo not drawn) [Compound 1084]
  IC50: 500 to 1000 nM

## CCc1cc2c(s1)CCOC21CCN(Cc2cn(CCS(C)(=O)=O)nn2)CC1 [Compound 1085]
  IC50: 500 to 1000 nM

## CCc1cc2c(s1)CCOC21CCN(Cc2cn(CCS(=O)(=O)C3CC3)nn2)CC1 [Compound 1086]
  IC50: 500 to 1000 nM

## CCc1nnc(Cn2cc(CN3CCC4(CC3)OCCc3sc(CC)cc34)nn2)o1 [Compound 1087]
  IC50: 500 to 1000 nM

## CCc1cc2c(s1)CCOC21CCN(Cc2cn(CC(C)S(C)(=O)=O)nn2)CC1 (stereo not drawn) [Compound 1088]
  IC50: 500 to 1000 nM

## CCc1cc2c(s1)CCOC21CCN(Cc2cn(CCS(=O)(=O)CC)nn2)CC1 [Compound 1089]
  IC50: 500 to 1000 nM

## CCc1cc2c(s1)CCOC21CCN(Cc2cn(CCS(=O)(=O)CC3CC3)nn2)CC1 [Compound 1090]
  IC50: 500 to 1000 nM

## CCc1cc2c(s1)CCOC21CCN(Cc2cn(CCS(=O)(=O)C3CCOCC3)nn2)CC1 [Compound 1091]
  IC50: 500 to 1000 nM

## CCc1cc2c(s1)CCOC21CCN(Cc2cn(CC(=O)NCC(C)O)nn2)CC1 (stereo not drawn) [Compound 1092]
  IC50: 500 to 1000 nM

## CCc1cc2c(s1)CCOC21CCN(Cc2cn(CCc3csc(N)n3)nn2)CC1 [Compound 1093]
  IC50: 500 to 1000 nM

## CCc1cc2c(s1)CCOC21CCN(Cc2cn(C3CC(O)C3(C)C)nn2)CC1 (stereo not drawn) [Compound 1094]
  IC50: 500 to 1000 nM

## CCc1cc2c(s1)CCOC21CCN(Cc2cn(CC(=O)NCCO)nn2)CC1 [Compound 1095]
  IC50: 500 to 1000 nM

## CCc1cc2c(s1)CCOC21CCN(Cc2cn(CC(=O)NCCC(F)(F)F)nn2)CC1 [Compound 1096]
  IC50: 500 to 1000 nM

## CCc1cc2c(s1)CCOC21CCN(Cc2cn(CC(O)c3cnn(C)c3)nn2)CC1 (stereo not drawn) [Compound 1097]
  IC50: 500 to 1000 nM

## CCc1cc2c(s1)CCOC21CCN(Cc2cn([C@H]3CC[C@@H]3O)nn2)CC1 [Compound 1098]
  IC50: 500 to 1000 nM

## CCc1cc2c(s1)CCOC21CCN(Cc2cn(CCCF)nn2)CC1 [Compound 1099]
  IC50: 500 to 1000 nM

## CCc1cc2c(s1)CCOC21CCN(Cc2cn(CCC(=O)NCCC(F)(F)F)nn2)CC1 [Compound 1100]
  IC50: 500 to 1000 nM

## CCc1cc2c(s1)CCOC21CCN(Cc2cn(C(C)c3nnc(C)o3)nn2)CC1 (stereo not drawn) [Compound 1101]
  IC50: 500 to 1000 nM

— patent US20250171459A1, “2-METHYL-4',5'-DIHYDROSPIRO[PIPERIDINE-4,7'-THIENO[2,3-C]PYRAN] DERIVATIVES AS INHIBITORS OF APOL1 AND METHODS OF USING SAME” (Vertex Pharmaceuticals Incorporated, priority 2022, published 2025)
